Experimental data published in US20050054103A1, “Expansion of renewable stem cell populations using modulators of PI 3-kinase” (priority 2003, published 2005).

Legend:
mononuclear cells = experiment: RAR antagonist treatment of mononuclear cell fraction cultures; format: cell-based, human; settings: Cytokines + RAR antagonist 10^−6 M; for % CD34/Lin^−: reselected CD34+ fraction
Description: Human blood cells were obtained from umbilical cord blood from female patients following full-term, normal delivery (informed consent was obtained). Samples were collected and processed within 12 hours postpartum. Blood was mixed with 3% Gelatin (Sigma, St. Louis, Mo.), sedimented for 30 minutes to remove most red blood cells. The leukocyte-rich fraction was harvested and layered on a Ficoll-Hypaque gradient (1.077 gram/ml; Sigma), and centrifuged at 400 g for 30 minutes. The mononuclear cell fraction in the interface layer was collected, washed three times and resuspended in phosphate-buffered saline (PBS) solution (Biological Industries) containing 0.5% bovine serum albumin (BSA, Fraction V; Sigma).
Alternatively, whole mononuclear fraction cells (MNC) were isolated, cultured and supplemented with cytokines, as above.
CD34^+ purified and whole MNC cultures were prepared and maintained as described above. AGN 194310 RAR antagonist was added to test cultures at concentrations ranging from […] [or 410 μg/l to 4.1×10^−5 μg/l]. The antagonist was added for a predetermined, limited period, for up to three weeks or continuously during the entire culture period.
CD34 surface expression on short and long-term cultures initiated either with purified CD34^+ cells or the entire MNC fraction was determined as follows: CD34^+ cells were positively reselected (Miltenyi kit) and counted. Purity was confirmed by subsequent FACS and cell morphology analysis.
Reselected CD34^+ cell subsets were stained for the following combination of antigens: CD34PE/CD38FITC and CD34PE/38, 33, 14, 15, 3, 4, 61, 19 (Lin) FITC. The fraction positive for CD34 and negative for CD38 was defined as CD34^+CD38^−. The fraction positive for CD34 and negative for LIN was defined as CD34^+Lin^− cell fraction.

[1] = system: lethally irradiated Balb/c X C57B1/6 F1 mice; experiment: Hematopoietic reconstitution of lethally irradiated mice, fresh vs. ex-vivo expanded cells; format: in vivo
Description: Hematopoietic reconstitution of lethally irradiated mice—fresh vs. ex-vivo expanded cells: Three month old female Balb/c X C57B1/6 F1 mice were lethally irradiated (1000 rad) and transplanted one day later with 1×10^5 fresh bone marrow cells or the yield of 1×10^5 bone marrow cells expanded ex-vivo either with or without TEPA for 3 to 5 weeks, as detailed in Table 12. Peripheral blood WBC counts were performed on weekly basis.

[2] = Exp. I, 3 weeks ex-vivo with TEPA + cytokines, day 13
[3] = Exp. I, 3 weeks ex-vivo with TEPA + cytokines, day 19
[4] = Exp. II, 3 weeks ex-vivo with TEPA + cytokines, day 11
[5] = Exp. II, 3 weeks ex-vivo with TEPA + cytokines, day 29
[6] = Exp. III, 5 weeks ex-vivo with TEPA + cytokines, day 6
[7] = Exp. III, 5 weeks ex-vivo with TEPA + cytokines, day 11

## CCc1ccc(C2=CC(C)(C)Sc3ccc(C#Cc4ccc(C(=O)O)cc4)cc32)cc1 [AGN 194310]
Mononuclear cells; 2 weeks
  No of CD34^+/Lin^− × 10^4 (cumulative value): 132.5 × 10^4
  No of CD34 cells × 10^4 (cumulative value): 169 × 10^4
  % CD34/Lin^−: 78%
Mononuclear cells; 5 weeks
  No of CD34^+/Lin^− × 10^4 (cumulative value): 237.8 × 10^4
  No of CD34 cells × 10^4 (cumulative value): 985 × 10^4
  % CD34/Lin^−: 24%

## NCCNCCNCCNCCN [TEPA, tetraethylenepentamine]
[1]; [2]
  Survival: 5/5
  WBC × 10^6/ml: 0.7 × 10^6/ml
[1]; [3]
  Survival: 5/5
  WBC × 10^6/ml: 1.5 × 10^6/ml
[1]; [4]
  Survival: 5/5
  WBC × 10^6/ml: 0.92 × 10^6/ml
[1]; [5]
  Survival: 5/5
  WBC × 10^6/ml: 10.8 × 10^6/ml
[1]; [6]
  Survival: 5/5
  WBC × 10^6/ml: 0.69 × 10^6/ml
[1]; [7]
  Survival: 5/5
  WBC × 10^6/ml: 1.27 × 10^6/ml
[1]; Exp. III, 5 weeks ex-vivo with TEPA + cytokines, day 19
  Survival: 4/5
[1]; Exp. III, 5 weeks ex-vivo with TEPA + cytokines, day 27
  Survival: 4/5
[1]; bone marrow cells expanded ex-vivo in the presence of TEPA
  WBC recovery vs fresh cells or cells expanded without TEPA: faster
